Molecular target: T1, caspase-3(D9A,D28A) (Homo sapiens, UniProt P42574, D28A/D9A)
T1 sequence (P42574 1-175 D9A/D28A limits assumed): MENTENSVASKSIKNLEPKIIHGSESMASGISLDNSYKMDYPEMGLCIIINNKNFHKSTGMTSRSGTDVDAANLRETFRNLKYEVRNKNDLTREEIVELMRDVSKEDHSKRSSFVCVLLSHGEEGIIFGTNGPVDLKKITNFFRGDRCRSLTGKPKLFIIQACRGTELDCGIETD
T1 sequence (P42574 176-277 limits assumed): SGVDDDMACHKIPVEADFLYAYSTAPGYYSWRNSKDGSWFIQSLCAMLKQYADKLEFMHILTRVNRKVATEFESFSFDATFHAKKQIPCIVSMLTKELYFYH
Test: isothermal titration calorimetry
Assay type: binding

Kd: ~4 µM
SMILES: CCN(CC)S(=O)(=O)c1ccc(-c2ccc(S(=O)(=O)N(CC)CC)s2)s1 [compound 42, N2,N2-diethyl-5-{5-[(diethylamino)sulfonyl]-2-thienyl}thiophene-2-sulfonamide]

Reference: PMC3166964 (Biophysical chemistry, 2011)
